Legend:
[1] = molecular target: T1, KRAS G12C (Homo sapiens, UniProt P01116, G12C); experiment: KRAS G12C NEA-HTRF experiment (SOS1-catalyzed displacement of GDP by GTP); type: biochemical
T1 construct: purchased Reactionbiology
In short: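 His-tagged KRAS G12C preloaded with DY647-GDP was preincubated 15 min at 20 °C with compound, then exchanged with SOS1 (0.2 μM working solution) and GTP (200 μM working solution) for 2 h at 20 °C in the dark. HTRF 665/615 nm ratio with anti-His-Tb was normalised to T0 and no-compound controls; IC50 by four-parameter fit.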

[2] = system: phosphorylated ERK downstream of KRAS G12C in MIA PaCa2 cells; experiment: Cell p-ERK detection experiment (HTRF) in MIA PaCa2; type: cell-based, human; settings: Homo sapiens, MIA PaCa-2, 2 h, MIA PaCa2 cells, 2 hours with compound, Advance ERK phospho-T202/Y204 HTRF kit; read-out: p-ERK IC50
In short: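 KRAS G12C-mutant MIA PaCa2 cells (2.5E4 per well, overnight) exposed 2 h to a 3.16-fold compound dilution series at 0.1% DMSO. Lysates probed 4 h with HTRF antibodies to ERK phospho-T202/Y204; inhibition versus DMSO control and blank, IC50 by four-parameter fit.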

T1 sequence (P01116 1-188 isoform P01116-2 G12C): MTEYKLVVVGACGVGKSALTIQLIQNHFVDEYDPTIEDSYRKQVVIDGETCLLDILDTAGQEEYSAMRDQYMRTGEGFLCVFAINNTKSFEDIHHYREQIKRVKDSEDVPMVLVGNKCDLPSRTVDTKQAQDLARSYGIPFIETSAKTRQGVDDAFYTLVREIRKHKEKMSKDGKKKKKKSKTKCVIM

| Compound | IC50 [1] | IC50 [2] |
| --- | --- | --- |
| C=CC(=O)N1CCN2C(=O)c3c(N4CCN(C)C[C@@H]4C)nc(-c4c(F)cccc4OC)c(F)c3OC[C@H]2C1 [Z451, (6aR)-8-acryloyl-1-((S)-2,4-dimethylpiperazin-1-yl)-4-fluoro-3-(2-fluoro-6-methoxyphenyl)-6,6 a,7,8,9,10-hexahydro-12H-pyrazino[2,1-c]pyrido[3,4-f][1,4]oxazepin-12 (6 aH)-one] | 3000 nM | 1480 nM |
| C=CC(=O)N1CCN2C(=O)c3c(N4C[C@H](N(C)C)CC4(C)C)nc(-c4cccc(C)c4F)c(Cl)c3OC[C@H]2C1 (single isomer, unassigned) [Z472-2] | 60 nM | 108 nM |
| C=CC(=O)N1CCN2C(=O)c3c(NC(C)(C)C)nc(-c4ccccc4F)c(Cl)c3OC[C@H]2C1 [Z457, (R)-8-acryloyl-1-(tert-butylamino)-4-chloro-3-(2-fluorophenyl)-6,6a,7,8,9,10-hexahydro-12H-pyrazino[2,1-c]pyrido[3,4-f][1,4]oxazepin-12-one] | 133 nM | 397 nM |
| C=CC(=O)N1CCN2C(=O)c3c(N4CCC[C@@H]4C)nc(-c4c(O)cccc4F)c(Cl)c3OC[C@H]2C1 [Z49, (6aR)-8-acryloyl-1-((S)-2-methylpyrrolidin-1-yl)-4-chloro-3-(2-fluoro-6-hydroxyphenyl)-6,6a,7,8,9,10-hexahydro-12H-pyrazino[2,1-c]pyrido[3,4-f][1,4]oxazepin-12-one] | 66 nM | 62 nM |
| C=CC(=O)N1CCN2C(=O)c3c(N4C[C@H](N(C)C)CC4(C)C)nc(-c4c(F)ccc(F)c4O)c(Cl)c3OC[C@H]2C1 (single isomer, unassigned) [Z475-2] | 79.3 nM | 107 nM |
| C=CC(=O)N1CCN2C(=O)c3c(N4CCN(C)C[C@@H]4C)nc(-c4c(F)cccc4C(F)F)c(Cl)c3OC[C@H]2C1 [Z456, (6aR)-8-acryloyl-4-chloro-3-(2-(difluoromethyl)-6-fluorophenyl)-1-((S)-2,4-dimethylpiperazin-1-yl)-6,6a,7,8,9,10-hexahydro-12H-pyrazino[2,1-c]pyrido[3,4-f][1,4]oxazepin-12-one] | 147 nM | 77 nM |
| C=CC(=O)N1CCN2C(=O)c3c(N4C[C@@H](N(C)C)CC4(C)C)nc(-c4ccccc4)c(Cl)c3OC[C@H]2C1 (single isomer, unassigned) [Z655-1] | 406 nM | 461 nM |
| C=CC(=O)N1CCN2C(=O)c3c(N4C[C@@H](C(=O)O)CC4(C)C)nc(-c4c(O)cccc4F)c(Cl)c3OC[C@H]2C1 (single isomer, unassigned) [Z458-1] | 8.8 nM | 3560 nM |
| C=CC(=O)N1CCN2C(=O)c3c(N4CCN(C)C[C@@H]4C)nc(-c4c(N)cccc4F)c(Cl)c3OC[C@H]2C1 [Z503, (6aR)-8-acryloyl-3-(2-amino-6-fluorophenyl)-4-chloro-1-((S)-2,4-dimethylpiperazin-1-yl)-6,6a,7,8,9,10-hexahydro-12H-pyrazino[2,1-c]pyrido[3,4-f][1,4]oxazepin-12-one] | 176 nM | 42 nM |
| C=CC(=O)N1CCN2C(=O)c3c(N4CCOC[C@@H]4C)nc(-c4c(O)cccc4F)c(Cl)c3OC[C@H]2C1 [Z32] | 142 nM | 80 nM |
| C=CC(=O)N1CCN2C(=O)c3c(N4CCC(OC)C4(C)C)nc(-c4c(N)cccc4F)c(Cl)c3OC[C@H]2C1 (stereo partly drawn) [Z506, (6aR)-8-acryloyl-3-(2-amino-6-fluorophenyl)-4-chloro-1-(3-methoxy-2,2-dimethylpyrrolidin-1-yl)-6,6a,7,8,9,10-hexahydro-12H-pyrazino[2,1-c]pyrido[3,4-f][1,4]oxazepin-12-one] | 18.3 nM | 11 nM |
| C=CC(=O)N1CCN2C(=O)c3c(N4CCOC(C)(C)C4)nc(-c4c(O)cccc4F)c(Cl)c3OC[C@H]2C1 [Z37, (6aR)-8-acryloyl-4-chloro-1-(2,2-dimethylmorpholino)-3-(2-fluoro-6-hydroxyphenyl)-6,6a,7,8,9,10-hexahydro-12H-pyrazino[2,1-c]pyrido[3,4-f][1,4]oxazepin-12-one] | 167 nM | 145 nM |
| C=CC(=O)N1CCN2C(=O)c3c(N4CC(O)CC4(C)C)nc(-c4c(F)cccc4OC)c(F)c3OC[C@H]2C1 (single isomer, unassigned) [Z450] | 147 nM | 141 nM |
| C=CC(=O)N1CCN2C(=O)c3c(N4C[C@@H](N(C)C)CC4(C)C)nc(-c4cccc(C)c4F)c(Cl)c3OC[C@H]2C1 (single isomer, unassigned) [Z472-1] | 145 nM | 189 nM |

Continued, values first:

| IC50 [1] | IC50 [2] | Compound |
| --- | --- | --- |
| 24.7 nM | 24 nM | C=CC(=O)N1CCN2C(=O)c3c(N4C[C@@H](N5CCN(C)CC5)C[C@@H]4C)nc(-c4ccccc4F)c(Cl)c3OC[C@H]2C1 [Z470-2] |
| 38.5 nM | 226 nM | C=CC(=O)N1CCN2C(=O)c3c(N4C[C@@H](N5CC(F)(F)C5)CC4(C)C)nc(-c4ccccc4F)c(Cl)c3OC[C@H]2C1 (single isomer, unassigned) [Z525-2] |
| 9.3 nM | 22 nM | C=CC(=O)N1CCN2C(=O)c3c(N4CC(N(C)CC(F)F)CC4(C)C)nc(-c4ccccc4F)c(Cl)c3OCC2C1 (single isomer, unassigned) [Z659-2] |
| 258 nM | 255 nM | C=CC(=O)N1CCN2C(=O)c3c(N4C[C@H](N5CCN(C)CC5)C[C@@H]4C)nc(-c4ccccc4F)c(Cl)c3OC[C@H]2C1 [Z470-1] |
| 105 nM | 151 nM | C=CC(=O)N1CCN2C(=O)c3c(N4C[C@@H](N(C)C)CC4(C)C)nc(-c4cccc(F)c4F)c(Cl)c3OC[C@H]2C1 [Z473-1, (R)-8-acryloyl-4-chloro-3-(2,3-difluorophenyl)-1-((S)-4-(dimethylamino)-2,2-dimethylpyrrolidin-1-yl)-6,6a,7,8,9,10-hexahydro-12H-pyrazino[2,1-c]pyrido[3,4-f][1,4]oxazepin-12-one] |
| 44 nM | 85 nM | C=CC(=O)N1CCN2C(=O)c3c(N4CC(N5CCC(F)(F)C5)CC4(C)C)nc(-c4ccccc4F)c(Cl)c3OC[C@H]2C1 (stereo partly drawn) [Z532, (6aR)-8-acryloyl-4-chloro-1-(3,3-difluoro-5′,5′-dimethyl-[1,3′-bipyrrolidin]-1′-yl)-3-(2-fluorophenyl)-6,6a,7,8,9,10-hexahydro-12H-pyrazino[2,1-c]pyrido[3,4-f][1,4]oxazepin-12-one] |
| 142 nM | 180 nM | C=CC(=O)N1CCN2C(=O)c3c(N4C[C@H](N(C)CCO)CC4(C)C)nc(-c4ccccc4F)c(Cl)c3OC[C@H]2C1 (single isomer, unassigned) [Z658-2] |
| 35 nM | 82 nM | C=CC(=O)N1CCN2C(=O)c3c(N4CC(N5CCOCC5)CC4(C)C)nc(-c4ccccc4F)c(Cl)c3OC[C@H]2C1 (single isomer, unassigned) [Z468-1] |
| 57 nM | 61 nM | C=CC(=O)N1CCN2C(=O)c3c(N4CCN(C(=O)CC)C[C@@H]4C)nc(-c4ccccc4F)c(Cl)c3OC[C@H]2C1 [Z477, (R)-8-acryloyl-4-chloro-3-(2-fluorophenyl)-1-((S)-2-methyl-4-propionylpiperazin-1-yl)-6,6a,7,8,9,10-hexahydro-12H-pyrazino[2,1-c]pyrido[3,4-f][1,4]oxazepin-12(6aH)-one] |
| 1930 nM | 523 nM | C=CC(=O)N1CCN2C(=O)c3c(N4C[C@@H](C)N(C)C[C@@H]4C)nc(-c4ccccc4F)c(Cl)c3OC[C@H]2C1 [Z464] |
| 35.5 nM | 67 nM | C=CC(=O)N1CCN2C(=O)c3c(N4C[C@H](N5CCN(C)CC5)CC4(C)C)nc(-c4ccccc4F)c(Cl)c3OC[C@H]2C1 (single isomer, unassigned) [Z454-2] |
| 262 nM | 144 nM | C=CC(=O)N1CCN2C(=O)c3c(N4CCN(C)C[C@@H]4C)nc(-c4ccccc4F)c(Cl)c3OC[C@H]2C1 [Z407-1, (R)-8-acryloyl-4-chloro-1-((S)-2,4-dimethylpiperazin-1-yl)-3-(2-fluorophenyl)-6,6a,7,8,9,10-hexahydro-12H-pyrazino[2,1-c]pyrido[3,4-f][1,4]oxazepin-12-one] |
| 15 nM | 27 nM | C=CC(=O)N1CCN2C(=O)c3c(N4C[C@@H](N(C)CC(F)(F)F)CC4(C)C)nc(-c4ccccc4F)c(Cl)c3OC[C@H]2C1 (single isomer, unassigned) [Z491] |
| 5 nM | 8 nM | C=CC(=O)N1CCN2C(=O)c3c(N4C[C@@H](N5CCN(C)CC5)CC4(C)C)nc(-c4c(O)cccc4F)c(Cl)c3OC[C@H]2C1 (single isomer, unassigned) [Z469-1] |
| 19.8 nM | 24 nM | C=CC(=O)N1CCN2C(=O)c3c(N4CC(N5CCN(C)CC5)CC4(C)C)nc(-c4ccccc4F)c(Cl)c3OC[C@H]2C1 (stereo partly drawn) [Z454, (6aR)-8-acryloyl-4-chloro-1-(2,2-dimethyl-4-(4-methylpiperazin-1-yl)pyrrolidin-1-yl)-3-(2-fluorophenyl)-6,6a,7,8,9,10-hexahydro-12H-pyrazino[2,1-c]pyrido[3,4-f][1,4]oxazepin-12-one] |
| 120 nM | 168 nM | C=CC(=O)N1CCN2C(=O)c3c(N4CC(N(C)C)CC4(C)C)nc(-c4ccccc4F)c(Cl)c3OC[C@H]2C1 (single isomer, unassigned) [Z453-2] |
| 21 nM | 28 nM | C=CC(=O)N1CCN2C(=O)c3c(N4CC(O)CC4(C)C)nc(-c4c(O)cccc4F)c(Cl)c3OC[C@H]2C1 (stereo partly drawn) [Z50, (6aR)-8-amyloyl-4-chloro-3-(2-fluoro-6-hydroxyphenyl)-1-(4-hydroxy-2,2-dimethylpyrrolidin-1-yl)-6,6a,7,8,9,10-hexahydro-12H-pyrazino[2,1-c]pyrido[3,4-f][1,4]oxazepin-12-one] |
